# Experimental data as given in ChEMBL document CHEMBL1201862, “PubChem BioAssay data set” (2004).
#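 Compound exposure: 48 hours, 5 concentrations, 96-well plates. The concentration for 50% growth inhibition is given as GI50.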 Calls of active or inactive are those of the source. Cut-off read from the data, not from the text of the source: active = GI50 up to about 1.1 µM and inactive = higher.
# Key:
# Assay in all cases: NCI tumour cell line growth inhibition, 48 h
# CAKI-1 = system: CAKI-1
# NCI/ADR-RES = system: NCI/ADR-RES
# HCT-15 = system: HCT-15
# SN12C = system: SN12C
# MCF7 = system: MCF7
# K562 = system: K562
# SK-MEL-2 = system: SK-MEL-2
# SNB-75 = system: SNB-75
# SF-539 = system: SF-539
# A498 = system: A498
# PC-3 = system: PC-3
# NCI-H460 = system: NCI-H460
# UO-31 = system: UO-31
# RXF 393 = system: RXF 393
# U-251 = system: U-251
# HOP-62 = system: HOP-62
# SF-268 = system: SF-268
# IGROV-1 = system: IGROV-1
# HL-60 = system: HL-60
# Malme-3M = system: Malme-3M
SMILES,GI50 (CAKI-1),GI50 (NCI/ADR-RES),GI50 (HCT-15) [µM],GI50 (SN12C),GI50 (MCF7),GI50 (K562),GI50 (SK-MEL-2),GI50 (SNB-75),GI50 (SF-539),GI50 (A498),GI50 (PC-3),GI50 (NCI-H460),GI50 (UO-31),GI50 (RXF 393),GI50 (U-251),GI50 (HOP-62),GI50 (SF-268),GI50 (IGROV-1),GI50 (HL-60),GI50 (Malme-3M)
O=C(O)c1cccc2cccc(-c3cccc4cccc(C(=O)O)c34)c12,> 100 µM (inactive),> 100 µM (inactive),> 100,> 100 µM (inactive),> 100 µM (inactive),> 100 µM (inactive),> 100 µM (inactive),> 100 µM (inactive),> 100 µM (inactive),> 100 µM (inactive),> 100 µM (inactive),> 100 µM (inactive),> 100 µM (inactive),> 100 µM (inactive),> 100 µM (inactive),> 100 µM (inactive),> 100 µM (inactive),> 100 µM (inactive),> 100 µM (inactive),> 100 µM (inactive)
CC(=O)Nc1cc(CN2CCCCC2)c(O)c2ncccc12,16.6 µM (inactive),16.2 µM (inactive),6.01,26 µM (inactive),24.7 µM (inactive),21.3 µM (inactive),4.13 µM (inactive),,58.5 µM (inactive),65.9 µM (inactive),21.6 µM (inactive),11.7 µM (inactive),7.35 µM (inactive),4.29 µM (inactive),17.1 µM (inactive),27.2 µM (inactive),23.7 µM (inactive),28.4 µM (inactive),14.5 µM (inactive),22.9 µM (inactive)
Brc1c2c(c(Br)c3nsnc13)N=S=N2,19.1 µM (inactive),26.7 µM (inactive),24.6,17.4 µM (inactive),24.2 µM (inactive),10.1 µM (inactive),20 µM (inactive),25.1 µM (inactive),22.7 µM (inactive),42.6 µM (inactive),32.7 µM (inactive),25.3 µM (inactive),22.8 µM (inactive),15 µM (inactive),23.1 µM (inactive),3.48 µM (inactive),26.3 µM (inactive),23.5 µM (inactive),3.83 µM (inactive),31.3 µM (inactive)
CCOC(=O)n1cncc1CC(NC(=O)Cc1c(C(=O)C=C(C)C)[nH]c2ccccc12)C(=O)OC (stereo not drawn),17.9 µM (inactive),33.4 µM (inactive),19.1,16.3 µM (inactive),24.7 µM (inactive),33.7 µM (inactive),17 µM (inactive),22.9 µM (inactive),19.5 µM (inactive),24.9 µM (inactive),17 µM (inactive),22.3 µM (inactive),15.7 µM (inactive),14.1 µM (inactive),19.5 µM (inactive),,18 µM (inactive),14.9 µM (inactive),18 µM (inactive),17.2 µM (inactive)
CN1CN(c2ccccc2)C2(CCN(CCCC3(c4cccs4)OCCO3)CC2)C1=O,> 100 µM (inactive),> 100 µM (inactive),> 100,> 100 µM (inactive),> 100 µM (inactive),> 100 µM (inactive),> 100 µM (inactive),88.7 µM (inactive),> 100 µM (inactive),> 100 µM (inactive),> 100 µM (inactive),> 100 µM (inactive),> 100 µM (inactive),> 100 µM (inactive),> 100 µM (inactive),> 100 µM (inactive),> 100 µM (inactive),> 100 µM (inactive),> 100 µM (inactive),> 100 µM (inactive)
COc1ccc2cc(C(=O)NCCCNC(=O)c3ccc4cc(OC)ccc4c3)ccc2c1,> 82.4 µM (inactive),> 61.5 µM (inactive),> 100,> 49.9 µM (inactive),> 100 µM (inactive),> 100 µM (inactive),> 75.3 µM (inactive),17.8 µM (inactive),3.94 µM (inactive),44.8 µM (inactive),> 100 µM (inactive),> 64.9 µM (inactive),> 75.7 µM (inactive),15.8 µM (inactive),21.1 µM (inactive),14.7 µM (inactive),23.9 µM (inactive),39.4 µM (inactive),> 100 µM (inactive),> 100 µM (inactive)
NC(=O)c1ncn2c(=O)n(CCCl)nnc12 [MITOZOLOMIDE],107 µM (inactive),168 µM (inactive),175,115 µM (inactive),120 µM (inactive),94.4 µM (inactive),249 µM (inactive),50 µM (inactive),31 µM (inactive),191 µM (inactive),177 µM (inactive),50.2 µM (inactive),236 µM (inactive),160 µM (inactive),40.4 µM (inactive),29.5 µM (inactive),31.6 µM (inactive),132 µM (inactive),30.8 µM (inactive),145 µM (inactive)
C#CCCCOc1ncccn1,> 100 µM (inactive),> 100 µM (inactive),,> 100 µM (inactive),> 100 µM (inactive),> 100 µM (inactive),> 100 µM (inactive),,> 100 µM (inactive),> 100 µM (inactive),> 100 µM (inactive),,> 100 µM (inactive),> 100 µM (inactive),> 100 µM (inactive),> 100 µM (inactive),> 100 µM (inactive),> 100 µM (inactive),> 100 µM (inactive),> 100 µM (inactive)
N#CCCN(CCC#N)c1ccc(/C=C2\N=C(c3ccccc3)N(c3ccc(C(=O)O)cc3)C2=O)cc1,,> 100 µM (inactive),40.8,70.1 µM (inactive),37.6 µM (inactive),38.2 µM (inactive),52.5 µM (inactive),,24.4 µM (inactive),> 100 µM (inactive),37.5 µM (inactive),27.6 µM (inactive),77.1 µM (inactive),40.7 µM (inactive),30.2 µM (inactive),> 100 µM (inactive),21.1 µM (inactive),20.3 µM (inactive),> 10 µM (inactive),
O=[N+]([O-])C(/C=C(\Cl)[N+](=O)[O-])=C(N1CCCCC1)N1CCCCC1,> 100 µM (inactive),26.9 µM (inactive),25.3,45 µM (inactive),0.631 µM (active),27 µM (inactive),30 µM (inactive),,25.9 µM (inactive),41.4 µM (inactive),39.6 µM (inactive),36.1 µM (inactive),21.3 µM (inactive),49.4 µM (inactive),65 µM (inactive),39.6 µM (inactive),51.2 µM (inactive),21.9 µM (inactive),20.1 µM (inactive),9.44 µM (inactive)
O=C(Nc1ccc(Cl)cc1C(F)(F)F)C(=O)Nn1c(S)nc2ccccc2c1=O,> 100 µM (inactive),> 100 µM (inactive),> 100,> 100 µM (inactive),> 100 µM (inactive),> 100 µM (inactive),> 100 µM (inactive),27.8 µM (inactive),> 100 µM (inactive),> 100 µM (inactive),> 100 µM (inactive),> 100 µM (inactive),> 100 µM (inactive),> 100 µM (inactive),> 100 µM (inactive),> 100 µM (inactive),> 100 µM (inactive),,60.5 µM (inactive),
CNC(=O)OCC1=C(COC(=O)NC)C(C)N(c2ccc(OC)cc2)C1 (stereo not drawn),,60.4 µM (inactive),> 100,> 100 µM (inactive),50.6 µM (inactive),69.2 µM (inactive),> 100 µM (inactive),29.4 µM (inactive),59.8 µM (inactive),0.351 µM (active),71.6 µM (inactive),23 µM (inactive),41.6 µM (inactive),54.6 µM (inactive),22.4 µM (inactive),40.3 µM (inactive),> 100 µM (inactive),29 µM (inactive),23.8 µM (inactive),> 100 µM (inactive)
c1ccc2c(c1)nc1n2CCSC1,> 100 µM (inactive),> 100 µM (inactive),> 100,> 100 µM (inactive),> 100 µM (inactive),> 100 µM (inactive),> 100 µM (inactive),> 100 µM (inactive),> 100 µM (inactive),> 100 µM (inactive),> 100 µM (inactive),> 100 µM (inactive),> 100 µM (inactive),> 100 µM (inactive),> 100 µM (inactive),> 100 µM (inactive),> 100 µM (inactive),74.8 µM (inactive),> 100 µM (inactive),
O=c1c2ccccc2nc2n1C(c1ccc([N+](=O)[O-])cc1)C2(c1ccccc1)c1ccccc1 (stereo not drawn),> 100 µM (inactive),> 100 µM (inactive),> 100,> 100 µM (inactive),54.6 µM (inactive),,> 100 µM (inactive),,> 100 µM (inactive),> 100 µM (inactive),24 µM (inactive),> 100 µM (inactive),,> 100 µM (inactive),> 100 µM (inactive),> 100 µM (inactive),> 100 µM (inactive),> 100 µM (inactive),37.2 µM (inactive),> 100 µM (inactive)
CC1CCC2C(C)(C)CC3(C)CCC1C23O (stereo not drawn),14.2 µM (inactive),14.6 µM (inactive),16.9,16.9 µM (inactive),15.8 µM (inactive),12.4 µM (inactive),14.1 µM (inactive),18.8 µM (inactive),17.8 µM (inactive),18.5 µM (inactive),13 µM (inactive),17 µM (inactive),16.4 µM (inactive),17 µM (inactive),16 µM (inactive),16.4 µM (inactive),,14.6 µM (inactive),1.63 µM (inactive),13.3 µM (inactive)
